Results from patent US20240277795A1, “INHIBITORS OF CYSTEINE PROTEASES AND METHODS OF USE THEREOF” (Pardes Biosciences, Inc., priority 2021, published 2024).
pEC50, pIC50: −log10 of the molar value. Read-outs that look alike come from different tables or passages of the source.

Legend:
229E Mpro = 229E Mpro (Human coronavirus 229E, UniProt P0C6X1); assay: 229E Mpro enzymatic assay; format: biochemical, HCoV 229E; conditions: Table 3
SARS-COV2 Mpro = SARS-COV2 Mpro (Severe acute respiratory syndrome coronavirus 2, UniProt P0DTD1); assay: COVID-19 (nCoV-2019, SARS-CoV2) Mpro enzymatic assay; format: biochemical
OC43 Mpro = OC43 Mpro (Human coronavirus OC43, UniProt P0C6X6); assay: OC43 Mpro enzymatic assay; format: biochemical, HCoV OC43; conditions: Table 3
HCoV 229E = HCoV 229E cytopathic effect (CPE) assay; format: cell-based; conditions: Table 4; CellTiter Glo; read-out: 229E CPE EC50
Procedure: (§1) Compounds were assayed using standard methods against multiple coronaviral strains, including HCoV 229E and OC43 strains. The antiviral activity of compounds was calculated based on the protection of the virus-induced CPE at each concentration normalized by the virus control.
(§2) Reagents and instruments used in this assay include luminescent cell viability assay kit CellTiter Glo (Promega) and Microplate Reader Synergy2 (BioTek).
Cytopathic effect (CPE) was measured by CellTiter Glo following the manufacturer's manual. The antiviral activity of compounds was calculated based on the protection of the virus-induced CPE at each concentration normalized by the virus control.
(§3) The cytotoxicity of compounds was assessed under the same conditions, but without virus infection, in parallel. Cell viability was measured with CellTiter Glo. The antiviral activity and cytotoxicity of compounds were expressed as % Inhibition and % Viability, respectively, and calculated with formulas.

HCov OC43 = assay: HCoV OC43 cytopathic effect (CPE) assay; format: cell-based; conditions: Table 4, CellTiter Glo
Procedure: as §1, §2
Reference compound used was remdesivir; detection reagent: CellTiter Glo.) The CPE were measured by CellTiter Glo following the manufacturer's manual. The antiviral activity of compounds was calculated based on the protection of the virus-induced CPE at each concentration normalized by the virus control.
as §3

[1] = system: SARS-CoV-2 WT replicon in Huh7 cells; assay: microbe, parasite or virus in culture; format: cell-based; conditions: Severe acute respiratory syndrome coronavirus 2, Huh-7, 24 h

Sequence of OC43 Mpro (P0C6X6 3247-3549): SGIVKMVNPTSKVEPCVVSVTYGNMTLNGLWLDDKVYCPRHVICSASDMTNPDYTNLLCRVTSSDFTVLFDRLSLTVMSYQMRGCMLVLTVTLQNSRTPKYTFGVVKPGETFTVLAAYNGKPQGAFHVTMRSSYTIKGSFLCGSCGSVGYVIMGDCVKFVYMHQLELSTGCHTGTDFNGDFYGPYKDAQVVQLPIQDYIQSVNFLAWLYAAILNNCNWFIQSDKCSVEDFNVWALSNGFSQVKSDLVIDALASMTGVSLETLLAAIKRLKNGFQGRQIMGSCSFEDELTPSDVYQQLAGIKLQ
Sequence of 229E Mpro (P0C6X1 2966-3267): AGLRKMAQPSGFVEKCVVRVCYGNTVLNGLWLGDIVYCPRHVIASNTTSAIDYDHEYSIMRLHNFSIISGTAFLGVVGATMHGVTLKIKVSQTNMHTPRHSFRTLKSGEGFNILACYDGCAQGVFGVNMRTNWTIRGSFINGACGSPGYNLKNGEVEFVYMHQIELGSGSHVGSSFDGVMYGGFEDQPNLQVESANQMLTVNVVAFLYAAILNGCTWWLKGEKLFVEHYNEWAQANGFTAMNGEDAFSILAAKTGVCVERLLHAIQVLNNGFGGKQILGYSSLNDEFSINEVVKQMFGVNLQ

Structure (SMILES)	pIC50 (229E Mpro)	pIC50 (SARS-COV2 Mpro)	pIC50 (OC43 Mpro)	pEC50 (HCoV 229E)	pEC50 (HCov OC43; Betacoronavirus 1, OC43)	pIC50 (SARS-COV2 Mpro; read-out: COVID-19 Mpro IC50, Table 3)	pEC50 (HCov OC43)	pEC50 [1]
CC(C)(C)[C@H](NC(=O)c1cnccn1)C(=O)N1C[C@H]2[C@@H]([C@H]1C(=O)N[C@H](C#N)C[C@@H]1CCNC1=O)C2(C)C (single isomer, unassigned) [101 Isomer 1]	> 5.70	> 5.70	> 5.70	5.00 to 5.70	> 5.70			
CC(C)(C)[C@H](NC(=O)c1cnccn1)C(=O)N1C[C@H]2[C@@H]([C@H]1C(=O)N[C@H](C#N)C[C@@H]1CCNC1=O)C2(C)C (single isomer, unassigned) [101 Isomer 2]	> 5.70		> 5.70	5.00 to 5.70		> 5.70	> 5.70	
Cc1cc(C(=O)N[C@@H](Cc2cccc3ccccc23)C(=O)N[C@@H](CC2CC2)C(=O)N[C@H](C#N)C[C@@H]2CCCNC2=O)no1 [Compound 111, N—((S)-1-(((S)-1-(((S)-1-cyano-2-((S)-2-oxopiperidin-3-yl)ethyl)amino)-3-cyclopropyl-1-oxopropan-2-yl)amino)-3-(naphthalen-1-yl)-1-oxopropan-2-yl)-5-methylisoxazole-3-carboxamide]	> 5.70	5.00 to 5.70	> 5.70	4.52 to 5.00	5.00 to 5.70			
Cc1cc(C(=O)N[C@@H](Cc2ccc(F)cc2)C(=O)N[C@@H](CC(C)C)C(=O)N[C@H](C#N)C[C@@H]2CCCNC2=O)no1 [Compound 113, N—((S)-1-(((S)-1-(((S)-1-cyano-2-((S)-2-oxopiperidin-3-yl)ethyl)amino)-4-methyl-1-oxopentan-2-yl)amino)-3-(4-tluorophenyl)-1-oxopropan-2-yl)-5-methylisoxazole-3-carboxamide]	> 5.70	> 5.70	> 5.70	5.00 to 5.70	5.00 to 5.70			
N#C[C@H](C[C@@H]1CCCNC1=O)NC(=O)[C@H](CC1CC1)NC(=O)[C@H](Cc1cccc2ccccc12)NC(=O)c1cnccn1 [Compound 115, N—((S)-1-(((S)-1-(((S)-1-cyano-2-((S)-2-oxopiperidin-3-yl)ethyl)amino)-3-cyclopropyl-1-oxopropan-2-yl)amino)-3-(naphthalen-1-yl)-1-oxopropan-2-yl)pyrazine-2-carboxamide]	> 5.70	5.00 to 5.70	> 5.70	5.00 to 5.70	5.00 to 5.70			
N#C[C@H](C[C@@H]1CCCNC1=O)NC(=O)[C@H](CC1CC1)NC(=O)[C@H](Cc1cccc2ccccc12)NC(=O)OCc1ccccc1 [Compound 116, Benzyl((S)-1-(((S)-1-(((S)-1-cyano-2-((S)-2-oxopiperidin-3-yl)ethyl)amino)-3-cyclopropyl-1-oxopropan-2-yl)amino)-3-(naphthalen-1-yl)-1-oxopropan-2-yl)carbamate]	> 5.70	> 5.70	> 5.70	5.00 to 5.70	> 5.70			
CC1(C)C[C@@H](C[C@@H](C#N)NC(=O)[C@H](CC2CC2)NC(=O)[C@H](Cc2cccc3ccccc23)NC(=O)c2cnccn2)C(=O)N1 [Compound 118, N—((S)-1-(((S)-1-(((S)-1-cyano-2-((R)-5,5-dimethyl-2-oxopyrrolidin-3-yl)ethyl)amino)-3-cyclopropyl-1-oxopropan-2-yl)amino)-3-(naphthalen-1-yl)-1-oxopropan-2-yl)pyrazine-2-carboxamide]	> 5.70	5.00 to 5.70	> 5.70	5.00 to 5.70	5.00 to 5.70			
N#C[C@H](C[C@@H]1CCNC1=O)NC(=O)[C@H](CC1CC1)NC(=O)[C@H](Cc1cccc2ccccc12)NC(=O)c1cnccn1 [Compound 119, N—((S)-1-(((S)-1-(((S)-1-cyano-2-((S)-2-oxopyrrolidin-3-yl)ethyl)amino)-3-cyclopropyl-1-oxopropan-2-yl)amino)-3-(naphthalen-1-yl)-1-oxopropan-2-yl)pyrazine-2-carboxamide]	> 5.70	5.00 to 5.70	> 5.70	4.52 to 5.00	5.00 to 5.70			
Cc1cc(C(=O)N[C@@H](Cc2cccc3ccccc23)C(=O)N[C@@H](CC2CC2)C(=O)N[C@H](C#N)C[C@@H]2CC(C)(C)NC2=O)no1 [Compound 120, N—((S)-1-(((S)-1-(((S)-1-cyano-2-((R)-5,5-dimethyl-2-oxopyrrolidin-3-yl)ethyl)amino)-3-cyclopropyl-1-oxopropan-2-yl)amino)-3-(naphthalen-1-yl)-1-oxopropan-2-yl)-5-methylisoxazole-3-carboxamide]	> 5.70	5.00 to 5.70	> 5.70	5.00 to 5.70	> 5.70			
Cc1cc(C(=O)N[C@@H](Cc2cccc3ccccc23)C(=O)N[C@@H](CC2CC2)C(=O)N[C@H](C#N)C[C@@H]2CCNC2=O)no1 [Compound 121, N—((S)-1-(((S)-1-(((S)-1-cyano-2-((S)-2-oxopyrrolidin-3-yl)ethyl)amino)-3-cyclopropyl-1-oxopropan-2-yl)amino)-3-(naphthalen-1-yl)-1-oxopropan-2-yl)-5-methylisoxazole-3-carboxamide]	> 5.70	5.00 to 5.70	> 5.70	5.00 to 5.70	5.00 to 5.70			
N#C[C@H](C[C@@H]1CCCNC1=O)NC(=O)[C@H](CC1CC1)NC(=O)[C@H](Cc1ccc(F)cc1)NC(=O)OCc1ccccc1 [Compound 123]	> 5.70	4.52 to 5.00	5.00 to 5.70	4.52 to 5.00	4.52 to 5.00			
N#C[C@H](C[C@@H]1CCNC1=O)NC(=O)C(CC1CCC(F)(F)CC1)NC(=O)[C@H](Cc1cccc2ccccc12)NC(=O)OCc1ccccc1 (stereo partly drawn) [Compound 128, benzylN-[(1S)-2-[[2-[[(1S)-1-cyano-2-[(3S)-2-oxopyrrolidin-3-yl]ethyl]amino]-1-[(4,4-difluorocyclohexyl)methyl]-2-oxo-ethyl]amino]-1-(1-naphthylmethyl)-2-oxo-ethyl]carbamate]	> 5.70	> 5.70	> 5.70	> 5.70	> 5.70			
CC(C)(C)[C@H](NC(=O)C1(C(F)(F)F)CC1)C(=O)N1C[C@H]2[C@@H]([C@H]1C(=O)N[C@H](C#N)C[C@@H]1CC3(CC3)NC1=O)C2(C)C [Compound 136, (1R,2S,5S)—N-[(1S)-1-cyano-2-[(6R)-5-oxo-4-azaspiro[2.4]heptan-6-yl]ethyl]-3-[(2S)-3,3-dimethyl-2-[[1-(trifluoromethyl)cyclopropanecarbonyl]amino]butanoyl]-6,6-dimethyl-3-azabicyclo[3.1.0]hexane-2-carboxamide]	> 5.70	> 5.70	> 5.70	> 5.70				
C[C@@H](OC1(C)CCC1)[C@H](NC(=O)C(F)(F)F)C(=O)N1C[C@H]2[C@@H]([C@H]1C(=O)N[C@H](C#N)C[C@@H]1CCCNC1=O)C2(C)C [Compound 376]								> 5.70
CC1(C)[C@@H]2[C@@H](C(=O)N[C@H](C#N)C[C@@H]3CCCNC3=O)N(C(=O)[C@@H](NC(=O)C(F)(F)F)C3CC3)C[C@@H]21 [Compound 377]								> 5.70
C[C@@H](OC1CC1)[C@H](NC(=O)C(F)(F)F)C(=O)N1C[C@H]2[C@@H]([C@H]1C(=O)N[C@H](C#N)C[C@@H]1CCCNC1=O)C2(C)C [Compound 378]								> 5.70
